pEC50, pIC50: −log10 of the molar value. Read-outs that look alike come from different tables or passages of the source.
What was measured:
[1] = tested on: 2019 novel coronavirus (SARS-CoV-2); experiment: microbe, parasite or virus in culture; format: cell-based; details: for inhibition at 5 µM: read-out: Inhibition Rate (5 μM); for inhibition at 10 µM: read-out: Inhibition Rate (10 μM)
[2] = tested on: respiratory syncytial virus (RSV); experiment: Cytopathic effect (CPE) assay, RSV in HEp-2; format: cell-based; details: human respiratory syncytial virus, HEp-2 cells
[3] = tested on: human coronavirus OC43 (HCoV OC43); experiment: Cytopathic effect (CPE) assay, HCoV OC43 in Huh7; format: cell-based; details: Betacoronavirus 1, OC43, Huh-7, Huh7 cells
Procedure: The inhibitory effects of compounds on the replication of respiratory syncytial virus (RSV), human coronavirus OC43, influenza A virus, Zika virus (Zika) were tested using cytopathic effect (CPE) assay.
Experimental cells were inoculated in 96-well cell culture plate at a certain cell density, and cultured in an incubator (5% CO2, 37° C.) overnight. Compounds and viruses were added on the second day. […] Then cell viability of each well was detected using Cell Titer-Glo or CCK-8. […] The cytotoxicity test method was the same as the corresponding antiviral test method without virus infection.
The antiviral activity and cytotoxicity of the compounds are respectively indicated by the inhibition rate (%) of compounds on virus-induced cellular viral effects and cell viability (%). Calculating formulas are as follows:
Inhibition rate (%)=(reading value of test well—average value of virus control)/(average value of cell control—average value of virus control)×100;
EC50 and CC50 value are calculated by Prism software, and the inhibition curve fitting method is “log (inhibitor) vs. response—Variable slope”.

[4] = tested on: porcine epidemic diarrhea virus (PEDV); experiment: Anti-porcine epidemic diarrhea virus (PEDV) activity test in Vero cells, fluorescence quantitative PCR; format: cell-based; details: 36 h
[5] = in vivo; details: male, CD-1, mouse, po, 50 mg/kg
[6] = in vitro; details: human
[7] = in vitro; details: human; remark: listed apart in the source
[8] = Pharmacokinetic evaluation in mice; details: male, CD-1, mouse, in vivo, po, 50 mg/kg
[9] = tested on: dengue fever virus (DENV); experiment: Dengue virus plaque reduction test in Vero cells; format: cell-based; details: for inhibition at 5 µM: Dengue virus, read-out: DENV (Vero) 5 μM (inhibition rate), 5 μM, plaque reduction
[10] = target: RNA-dependent RNA polymerase (RdRp) of 2019 novel coronavirus (SARS-CoV-2) (Severe acute respiratory syndrome coronavirus 2 (2019-nCoV) (SARS-CoV-2), UniProt P0DTD1); experiment: Inhibition of RdRp of novel coronavirus, fluorescence method; format: biochemical; details: for inhibition of the activity of RdRp (in words): RdRp of novel coronavirus
Procedure: According to the method reported in the literature (Virus Genes, 2015, 50:498-504), the inhibitory activity of the compound of the invention on RNA-dependent RNA polymerase (RdRp) of 2019 novel coronavirus (SARS-CoV-2) was determined using the fluorescence method: after the solution of the novel coronavirus RdRp, substrate, compound solution, buffer solution, etc were co-incubated for 1 hour, fluorescent DNA binding dye was added. 10 minutes later, data collection was carried out and the inhibitory activities of the compounds on RdRp were determined.

[11] = Severe acute respiratory syndrome coronavirus 2, Vero C1008, 24 h, 5 μM, Vero E6 cells, 24 h p.i.
[12] = Porcine epidemic diarrhea virus, Vero
[13] = Severe acute respiratory syndrome coronavirus 2, Vero C1008, 24 h, 10 μM, Vero E6 cells, 24 h p.i.
[14] = Severe acute respiratory syndrome coronavirus 2, Vero C1008, 24 h
[15] = Severe acute respiratory syndrome coronavirus 2, Vero C1008, Vero E6 cells, 24 h p.i., read-out: EC50

For `[2H]c1cc([C@]2(C#N)O[C@H](C([2H])([2H])O)[C@@H](O)[C@H]2O)n2ncnc(N)c12` (stereo in doubt) [Compound A11], the inhibition at 5 µM [1, 11] was greater than 98%, the pEC50 [2] was 6.18 and the pEC50 [3] was 5.70. For the same compound, the pEC50 [4, 12] was 8.30, the half-life [5] was 1.9 h and the CC50 [6] was greater than 10000 nM. It also gave a CC50 [7] greater than 10000 nM, an AUC(0-inf) [8] of 5750 ng·h/mL and an AUC(0-t) [8] of 5680 ng·h/mL. The Cmax [8] was 2120 ng/mL and the Tmax [8] was 0.7 h.
`N#C[C@@]1(c2cc(F)c3c(N)ncnn23)O[C@H](CO)[C@@H](O)[C@H]1O` [Compound A1] gave an inhibition at 5 µM [1, 11] of 80% and an inhibition at 10 µM [1, 13] of 97%.
With `N#C[C@@]1(c2cc(Cl)c3c(N)ncnn23)O[C@H](CO)[C@@H](O)[C@H]1O` [Compound A2] the inhibition at 10 µM [1, 13] was less than 50%.
For `N#C[C@@]1(c2cc(I)c3c(N)ncnn23)O[C@H](CO)[C@@H](O)[C@H]1O` [Compound A3], the inhibition at 10 µM [1, 13] was less than 50%.
`N#C[C@@]1(c2ccc3c(=O)[nH]cnn23)O[C@H](CO)[C@@H](O)[C@H]1O` [Compound A4] showed an inhibition at 10 µM [1, 13] of less than 50%.
With `[2H]C([2H])(O)[C@H]1O[C@@](C#N)(c2cc(F)c3c(N)ncnn23)[C@H](O)[C@@H]1O` [Compound A12] the inhibition at 5 µM [1, 11] was greater than 98%.
`Nc1ncnn2c([C@]3(C4CC4)O[C@H](CO)[C@@H](O)[C@H]3O)ccc12` [Compound A28] showed a pEC50 [4, 12] of 5.96 and an inhibition at 5 µM [9] of 6%.
In the case of `CC(C)C(=O)OC[C@H]1O[C@@](C#N)(c2ccc3c(N)ncnn23)[C@H](O)[C@@H]1O` [Compound A50], the “Inhibition Rate (5 μM)” value ([1]; 5 μM, Vero E6 cells, 24 h p.i.) was 99%, the “Inhibition Rate (10 μM)” value ([1]; 10 μM, Vero E6 cells, 24 h p.i.) was 99% and the pEC50 ([1]; Vero E6 cells, 24 h p.i., read-out: EC50) was 6.64. The pEC50 [4] was 8.70.
In the case of `CC(C)[C@H](N)C(=O)OC[C@H]1O[C@@](C#N)(c2ccc3c(N)ncnn23)[C@H](O)[C@@H]1O` [Compound A52], the inhibition at 5 µM [1, 11] was greater than 98%.
`[2H]c1cc([C@]2(C#N)O[C@H](COC(=O)[C@@H](N)C(C)C)[C@@H](O)[C@H]2O)n2ncnc(N)c12` [Compound A72] gave an inhibition at 5 µM [1, 11] of 99%, a pEC50 [2] of 6.11 and a CC50 [6] greater than 10000 nM.
`[2H]C([2H])(OC(=O)C(C)C)[C@H]1O[C@@](C#N)(c2ccc3c(N)ncnn23)[C@H](O)[C@@H]1O` [Compound A75] showed an inhibition at 5 µM [1, 11] of 99%, a pEC50 [2] of 6.31 and a CC50 [6] greater than 10000 nM.
`[2H]C([2H])(OC(=O)[C@@H](N)C(C)C)[C@H]1O[C@@](C#N)(c2ccc3c(N)ncnn23)[C@H](O)[C@@H]1O` [Compound A77] showed an inhibition at 5 µM [1, 11] greater than 98%.
Work on `CCC(CC)COC(=O)[C@H](C)N[P@](=O)(OC[C@H]1O[C@@](C#N)(c2cc(F)c3c(N)ncnn23)[C@H](O)[C@@H]1O)Oc1ccccc1` [Compound A84] yielded an inhibition at 10 µM [1, 14] of 82%.
With `N#C[C@@]1(c2cc(F)c3c(N)ncnn23)O[C@H](COP(=O)(O)OP(=O)(O)OP(=O)(O)O)[C@@H](O)[C@H]1O` [Compound A102] the pIC50 ([10]; RdRp of 2019 novel coronavirus) was 5.00 to 6.00 and the “inhibition of the activity of RdRp (in words)” value (“inhibition … (in words)” for short) [10] was “significantly inhibit the activity of RdRp”.
With `[2H]c1cc([C@]2(C#N)O[C@H](COP(=O)(O)OP(=O)(O)OP(=O)(O)O)[C@@H](O)[C@H]2O)n2ncnc(N)c12` [Compound A106] the “inhibition … (in words)” value [10] was “significantly inhibit the activity of RdRp”.
For `[2H]C([2H])(OP(=O)(O)OP(=O)(O)OP(=O)(O)O)[C@H]1O[C@@](C#N)(c2ccc3c(N)ncnn23)[C@H](O)[C@@H]1O` [Compound A107], the “inhibition … (in words)” value [10] was “significantly inhibit the activity of RdRp”.
For `N#C[C@@]1(c2ccc3c(N)ncnn23)O[C@H](COP(=O)(O)OP(=O)(O)OP(=O)(O)O)[C@@H](O)[C@H]1O` [Compound A109], the pEC50 [1, 14] was 6.24, the inhibition at 5 µM [1, 14] was 99% and the inhibition at 10 µM [1, 14] was 99%.
In the case of `NC(=O)[C@@]1(c2ccc3c(N)ncnn23)O[C@H](CO)[C@@H](O)[C@H]1O` [Compound A112], the inhibition at 10 µM [1, 13] was less than 50%.
`CC(C)C(=O)OC[C@H]1O[C@@](C#N)(c2ccc3c(N)ncnn23)[C@H](OC(=O)C(C)C)[C@@H]1OC(=O)C(C)C` [Compound A131] gave an inhibition at 5 µM [1, 11] greater than 98% and a pEC50 [4, 12] greater than 7.00.
`[2H]c1cc([C@]2(C#N)O[C@H](CO)[C@@H](OC(=O)C(C)C)[C@H]2O)n2ncnc(N)c12` [Compound A144] gave an inhibition at 5 µM [1, 11] of 99%, a pEC50 [1, 15] of 6.62 and a pEC50 [2] of 6.33. For the same compound, the pEC50 [3] was 5.73, the pEC50 [4, 12] was greater than 7.00 and the CC50 [6] was greater than 10000 nM. It also gave a CC50 [7] greater than 10000 nM.
`[2H]C([2H])(O)[C@H]1O[C@@](C#N)(c2ccc3c(N)ncnn23)[C@H](O)[C@@H]1OC(=O)C(C)C` [Compound A164] showed an inhibition at 5 µM [1, 11] of 99% and a pEC50 [1, 15] of 6.57.
Compound `[2H]C([2H])(OC(=O)C(C)C)[C@H]1O[C@@](C#N)(c2ccc3c(N)ncnn23)[C@H](OC(=O)C(C)C)[C@@H]1OC(=O)C(C)C` [Compound A171] has an inhibition at 5 µM [1, 11] greater than 98%.
For `[2H]c1cc([C@]2(C#N)O[C@H](C([2H])([2H])O)[C@@H](OC(=O)C(C)C)[C@H]2O)n2ncnc(N)c12` [Compound A173], the pEC50 [2] was 6.34 and the CC50 [6] was greater than 10000 nM.
For `[2H]c1cc([C@]2(C#N)O[C@H](C([2H])([2H])OC(=O)C(C)C)[C@@H](O)[C@H]2O)n2ncnc(N)c12` [Compound A180], the inhibition at 5 µM [1, 11] was greater than 98%.
`[2H]c1cc([C@]2(C#N)O[C@H](C([2H])([2H])OC(=O)[C@@H](N)C(C)C)[C@@H](O)[C@H]2O)n2ncnc(N)c12` [Compound A181] showed an inhibition at 5 µM [1, 11] greater than 98%.
`[2H]c1cc([C@]2(C#N)O[C@H](C([2H])([2H])O)[C@@H](OC(=O)C(C)C)[C@H]2O)n2ncnc(N)c12` [Compound A188] gave an inhibition at 5 µM [1, 11] greater than 98%.
`[2H]c1cc([C@]2(C#N)O[C@H](C([2H])([2H])OC(=O)C(C)C)[C@@H](OC(=O)C(C)C)[C@H]2OC(=O)C(C)C)n2ncnc(N)c12` [Compound A196] gave an inhibition at 5 µM [1, 11] greater than 98%.
For `[2H]c1cc([C@]2(C#N)O[C@H](C([2H])([2H])OP(=O)(O)OP(=O)(O)OP(=O)(O)O)[C@@H](O)[C@H]2O)n2ncnc(N)c12` [Compound A198], the “inhibition … (in words)” value [10] was “significantly inhibit the activity of RdRp”.
`CC(C)[C@H](N)C(=O)O[C@H]1[C@@H](O)[C@](C#N)(c2ccc3c(N)ncnn23)O[C@@H]1CO` [Compound A212] gave an inhibition at 5 µM [1, 11] of 99%, an inhibition at 10 µM [1, 13] of 99% and a pEC50 [1, 15] of 6.96.
`[2H]c1cc([C@]2(C#N)O[C@H](CO)[C@@H](OC(=O)[C@@H](N)C(C)C)[C@H]2O)n2ncnc(N)c12` [Compound A213] showed an inhibition at 5 µM [1, 11] of 99%, a pEC50 [1, 15] of 7.00 and a pEC50 [2] of 6.12. For the same compound, the pEC50 [3] was 5.71, the CC50 [6] was greater than 10000 nM and the CC50 [7] was greater than 10000 nM.
`[2H]C([2H])(O)[C@H]1O[C@@](C#N)(c2ccc3c(N)ncnn23)[C@H](O)[C@@H]1OC(=O)[C@@H](N)C(C)C` [Compound A214] gave an inhibition at 5 µM [1, 11] of 99% and a pEC50 [1, 15] of 6.96.
`[2H]c1cc([C@]2(C#N)O[C@H](C([2H])([2H])O)[C@@H](OC(=O)[C@@H](N)C(C)C)[C@H]2O)n2ncnc(N)c12` [Compound A215] showed an inhibition at 5 µM [1, 11] greater than 98%.
For `N#C[C@@]1(c2ccc3c(N)ncnn23)O[C@H](CO)[C@@H](O)[C@H]1O` [Compound A216], the pEC50 [4] was 5.72 and the inhibition at 5 µM [9] was 24%.
Compound `CO[C@@H]1[C@H](O)[C@@H](CO)O[C@@]1(C#N)c1ccc2c(N)ncnn12` [Compound A221] has a pEC50 [4, 12] of 5.87 and an inhibition at 5 µM [9] of 51%.
`NC(=O)c1nc(F)cnc1O` [Favipiravir, reference compound] showed an inhibition at 5 µM [1, 11] of 0% and an inhibition at 10 µM [1, 13] of less than 20%.
`CCC(CC)COC(=O)[C@H](C)N[P@](=O)(OC[C@H]1O[C@@](C#N)(c2ccc3c(N)ncnn23)[C@H](O)[C@@H]1O)Oc1ccccc1` [Remdesivir, reference compound] gave an inhibition at 5 µM [1, 11] of 65%, an inhibition at 10 µM [1, 13] of 99% and a pEC50 [1, 15] of 5.70. For the same compound, the pEC50 [3] was 7.68, the inhibition at 5 µM [9] was 100% and the CC50 [7] was 25700 nM.
With `NC(=O)c1ncn([C@@H]2O[C@H](CO)[C@@H](O)[C@H]2O)n1` [Ribavirin, reference compound] the “DENV (Vero) value printed without unit” value ([9]; column head 5 μM, no % printed) was 17.4.
